{"source": "paper PMC2821522", "about": "(Journal of Clinical Immunology, 2009)", "format_in_all_cases": "cell-based, human", "key": {"[1]": {"tested_on": "CD4+ T cells", "assay": "Flow cytometry / intracellular cytokine staining, CD4+ T cells", "conditions": "sarcoidosis subjects, in words, Fig. 1"}, "[2]": {"tested_on": "expanded sarcoidosis CD4+ T cell lines; antigen presented by Sweig cells (HLA DRB1*1101 and DRB3*0202)"}, "[3]": {"tested_on": "PBMC (immune recognition, gamma interferon-secreting T cells)"}}, "note": "Where two headings read alike, the source gives them in different places."}
{"sequence": "WTNTPTKWDNSFLEI [katG peptide 13]", "values": [{"measurement": "CD4+ T cell response", "setting": "[1]; listed as katG", "result": "CD4+ T cell recognition of katG was also detected"}, {"measurement": "CD4+ T cell response", "setting": "[1]; listed as katG peptide", "result": "strong CD4+ T cells response"}, {"measurement": "immune response (CD4+ IFN-γ)", "setting": "[2]", "result": "minimal response"}, {"measurement": "immune response (CD4+ IFN-γ)", "setting": "[2]; katG-expanded line of Sarcoidosis 6, with Sweig cells, Fig. 4, listed as katG peptides", "result": "strong CD4+ responses"}, {"measurement": "subjects recognizing the peptide", "setting": "[3]", "result": "Seven of the eight"}, {"measurement": "subjects recognizing the peptide", "setting": "[3]; PPD− control subjects", "result": "none"}]}
